Laboratory results: patent US20070048358A1, “Antimicrobial substrates” (priority 2005, published 2007)

Test system: Staphylococcus aureus (ATCC #27660)
Test: Rapid Germicidal Time Kill on treated gloves
Assay type: cell-based
Conditions: for log reduction of organisms: nitrile gloves, versus applied organisms estimated from latex control
Experimental: We applied an inoculum of a known amount of microbes to the antimicrobial-treated surface of a glove. After about 3-6 minutes, we assessed the number of microbes that remained on the surface of the treated glove. […] Table 2 reports the relative efficacy of killing after contact with the coated glove. The concentration of organisms on the surface is given at an initial Zero Time point and at 3, 5, and 30 minute points. […] To test the antimicrobial efficacy of a polyhexamethylene biguanide, we treated nitrile examination gloves according to ASTM protocol 04-123409-106 “Rapid Germicidal Time Kill.” In brief, about 50 μL of an overnight culture of Staphylococcus aureus (ATCC #27660, 5×10^8 CFU/mL) was applied to the glove material. After a total contact time of about 6 minutes the glove fabric was placed into a neutralizing buffer. Surviving organisms were extracted and diluted in Letheen broth. Aliquots were spread plated on Tryptic Soy Agar plates. Plates were incubated for 48 hours at 35° C. Following incubation the surviving organisms were counted and the colony forming units (CFU) were recorded. The reduction (log10) in surviving organisms from test material versus control fabric was calculated: Log10 CFU/swatch Control−Log10 CFU/swatch Test Article=Log10 Reduction.

For Polyhexamethylene biguanide (PHMB), which “log reduction of Staphylococcus aureus ATCC 27660” value (microtextured nitrile glove, machine applied at 0.03 g/glove) is on record?
The value was “greater than four log reduction”.

What about the “log reduction of organisms” value (hand sprayed with no heat) of the same substance?
Its value is “greater than one log reduction”.

And the “log reduction of organisms” value (machine sprayed under heated conditions)?
The value was “greater than 5 log”.
